Columns and labels:
yersiniabactin [1] = test: 13C labeled salicylic acid incorporation into Ybt in culture; assay type: cell-based; conditions: FIG. 12 middle panel
yersiniabactin [2] = test: 13C labeled salicylic acid in infection model, labeled Ybt in mouse urine; assay type: in vivo; conditions: FIG. 12 right panel

O=C(O)[13c]1[13cH][13cH][13cH][13cH][13c]1O [^13C labeled salicylic acid]
incorporation of labeled compound into Ybt during culture (yersiniabactin [1]): incorporated
labeled compound in mouse urine by mass spectrometry (yersiniabactin [2]): detectable

— US11400102B2, “Treatment for bacterial infections with salicylic acid analogs” (priority 2019, dated 2022)
